# Results: US9611276B2, “Imidazo bicyclic iminium compounds as antitumor agents” (THE BOARD OF TRUSTEES OF THE LELAND STANFORD JUNIOR …, priority 2012, dated 2017)
# System: medulloblastoma allograft tumors
# Test: Murine medulloblastoma allograft model
# Format: in vivo, mouse
# Settings: 2 mg/kg/day, intraperitoneal, day 5
# Description: Murine medulloblastoma allograft model: Ptch1+/−; p53+/−; Math1:GFP mice were mated to generate pups with the appropriate genotype of Ptch1+/−; p53−/−; Math1:GFP. These mice will get medulloblastoma tumors when they are 6 to 10 weeks of age. The primary medulloblastoma tumors were harvested, dissected, dissociated by papain treatment and tissue trituration, and injected into the flanks of nude mice as a Matrigel mixture (50 μL of 2×10^7 tumor cells mixed with 50 μL of Matrigel). Secondary and tertiary tumors can subsequently be derived from these allografts as necessary. The length, width, and depth of each allograft were monitored, and compound testing began when the tumors reached a volume of 150 mm3 (approximately one week after tumors were first visible). The compounds were dissolved in a minimum volume of DMSO, and the DMSO solution was mixed with sterile corn oil so that the DMSO constituted less than 10% of the total volume. The drug was administered by intraperitoneal injection (50 μL), with each daily dose divided into two portions and administered at 12-hour intervals. The Smoothened antagonist vismodegib was administered at 50 mg/kg/day as a positive control.
row,SMILES,Tumor volume compared to control
1,CCOc1ccc(-c2c[n+](-c3ccc(OC)cc3)c3n2-c2ccccc2CC3)cc1.[Br-] [Compound E-1],reduced tumor volume by half

# Biological target: T1, Smo (Mus musculus, UniProt P56726)
# T1 construct: endogenous in cells; host or cells: NIH 3T3
# Test: Smo trafficking assay in NIH 3T3 cells
# Format: cell-based
# Settings: Hh-responsive cells, ShhN stimulation
# Source text: The cells were imaged using a Plan Apochromat 63×/1.4-0.6 oil immersion objective on an upright Leica DM4500B compound microscope.
# T1 sequence (P56726 33-793): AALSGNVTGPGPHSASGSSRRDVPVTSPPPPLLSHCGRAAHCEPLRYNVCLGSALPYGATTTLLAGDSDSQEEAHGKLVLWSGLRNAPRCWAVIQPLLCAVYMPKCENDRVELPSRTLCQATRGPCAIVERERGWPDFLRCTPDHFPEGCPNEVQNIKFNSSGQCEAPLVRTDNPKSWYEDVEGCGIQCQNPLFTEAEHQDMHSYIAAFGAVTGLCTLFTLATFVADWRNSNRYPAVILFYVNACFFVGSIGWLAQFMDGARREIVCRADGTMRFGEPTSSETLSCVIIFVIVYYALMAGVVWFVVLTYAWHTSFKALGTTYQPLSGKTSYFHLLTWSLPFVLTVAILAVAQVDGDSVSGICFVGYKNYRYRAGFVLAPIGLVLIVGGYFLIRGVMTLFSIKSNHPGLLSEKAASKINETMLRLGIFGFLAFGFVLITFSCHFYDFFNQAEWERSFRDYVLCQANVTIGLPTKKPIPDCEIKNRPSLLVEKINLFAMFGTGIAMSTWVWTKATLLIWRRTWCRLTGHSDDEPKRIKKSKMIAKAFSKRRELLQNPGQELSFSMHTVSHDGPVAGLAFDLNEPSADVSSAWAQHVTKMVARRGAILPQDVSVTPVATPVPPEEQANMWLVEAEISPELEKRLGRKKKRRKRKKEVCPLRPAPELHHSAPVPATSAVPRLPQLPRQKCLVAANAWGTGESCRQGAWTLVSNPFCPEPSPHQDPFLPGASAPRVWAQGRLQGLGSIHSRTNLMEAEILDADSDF
row,SMILES,Effect on Smo localization / trafficking
1,"CC1=C2C[C@H]3[C@@H](CC=C4C[C@@H](O)CC[C@@]43C)[C@@H]2CC[C@]12O[C@@H]1C[C@H](C)CN[C@H]1[C@H]2C [cyclopamine, reference compound]",alters Smo trafficking

# System: Hh pathway activity
# Test: Sufu-KO-LIGHT cell assay, Gli-dependent firefly luciferase reporter
# Format: cell-based, mouse
# Settings: Mus musculus
# Description: Sufu-KO-LIGHT cells were derived from Sufu knockout mouse embryonic fibroblasts according to the method of Chen et al. [Genes Dev. 2009; 23(16):1910-28.] The cells were co-transfected with the zeocin resistance vector (pVgRXR, Invitrogen) and a firefly luciferase reporter driven by eight Gli binding sites and a γ-crystallin basal promoter (8XGliBS-FL) [see Sasaki et al. Development. 1997; 124(7):1313-22.2]. […] Sufu-KO-LIGHT cells were cultured in DMEM (Invitrogen, 11965) containing 10% (v/v) fetal bovine serum (Invitrogen, No. 26140), 150 μg/mL zeocin (Invitrogen, R250-01), 1 mM sodium pyruvate (Invitrogen, 11360) and 1× PenStrep (Gibco, 15140).
# All test compounds were dissolved in DMSO at 50 mM, serially diluted by 1:3, 1:4 or 1:5 in a 96-well translucent microplate (Greiner bio-one, 650201) and stored at −20° C. These serial dilutions were added to assay media freshly with final DMSO concentration of 0.2% (v/v).
# The Sufu-KO-LIGHT cell assay provides a measure of Hh pathway activity and cytotoxicity. Sufu-KO-LIGHT cells were seeded into a 96-well plate (35,000 cells/well), cultured to confluency for 24 hrs and then incubated with test compounds in DMEM without phenol red (Invitrogen, 26140) containing 0.5% (v/v) fetal bovine serum (Invitrogen, No. 26140), 150 μg/mL zeocin (Invitrogen, R250-01), 1 mM sodium pyruvate (Invitrogen, 11360), 1× PenStrep (Gibco, 15140) for 16 hrs. Bright Glo (Promega, E2620) reagent (50 μL/well) was added to the cells, and luciferase activities were determined on a microplate luminometer (Veritas). To assess cytotoxicity, after 15 hrs of incubation with test compounds, CellTiter 96 AQueous One Solution Cell Proliferation Assay (Promega, G3580) reagent (20 μL/well) was added. Cell viability was determined by measuring absorption at 490 nm after 1 hr of incubation on a microplate spectrophotometer (Benchmark Plus, Bio-Rad). Biological triplicates were analyzed for each test compounds.
row,SMILES,IC50 [µM]
1,Brc1ccc(-c2c[n+](-c3ccccc3)c3n2CCCCC3)cc1 [Compound A-2],7.9
2,COc1ccccc1-[n+]1cc(-c2ccc(Br)cc2)n2c1CCCCC2 [Compound A-3],0.34
3,COc1ccc(-c2c[n+](-c3ccc(Br)cc3)c3n2CCCCC3)cc1 [Compound A-15],3.3
4,Clc1ccc(-[n+]2cc(-c3ccc(Br)cc3)n3c2CCCCC3)cc1 [Compound A-6],11.7
5,FC(F)(F)c1cccc(-[n+]2cc(-c3ccc(Br)cc3)n3c2CCCCC3)c1 [Compound A-5],12.3
6,Brc1ccc(-c2c[n+](-c3ccc4c(c3)OCCO4)c3n2CCCCC3)cc1 [Compound A-4],5

# Same assay, conditions: Mus musculus; Table 1; assay not given, A-1 value equals the Sufu-KO-LIGHT value; read-out: IC50
row,SMILES,IC50 [µM]
1,COc1ccc(-[n+]2cc(-c3ccc(OC(F)F)cc3)n3c2CCCCC3)cc1 [Compound A-12],13.9
2,CCOc1ccc(-c2c[n+](-c3ccccc3OC)c3n2CCCCC3)cc1 [Compound A-18],0.08
3,CCOc1ccc(-[n+]2cc(-c3ccc(-c4ccccc4)cc3)n3c2CCCCC3)cc1 [Compound A-8],0.19 ± 0.14
4,CCOc1ccc(-[n+]2cc(-c3ccc(Cl)cc3)n3c2CCCCC3)cc1 [Compound A-7],3
5,CCOc1ccc(-[n+]2cc(-c3ccccc3)n3c2CCCCC3)cc1 [Compound A-9],1.7
6,CCOc1ccc(-[n+]2cc(-c3ccc(OC)cc3)n3c2CCCCC3)cc1 [Compound A-10],2.5
7,FC(F)Oc1ccc(-[n+]2cc(-c3ccc(Cl)cc3)n3c2CCCCC3)cc1 [Compound A-13],17.5
8,COc1ccc(-[n+]2cc(-c3ccc(Cl)cc3)n3c2CCCCC3)cc1 [Compound A-11],2.5
9,CCOc1ccc(-c2c[n+](-c3cccc(C(F)(F)F)c3)c3n2CCCCC3)cc1 [Compound A-16],7.4
10,COc1ccccc1-[n+]1cc(-c2ccc(-c3ccccc3)cc2)n2c1CCCCC2 [Compound A-19],0.03
11,CCc1ccc(-[n+]2cc(-c3ccc(OC(F)F)cc3)n3c2CCCCC3)cc1 [Compound A-17],2.9

# Same assay, conditions: Mus musculus; Table 2; assay not given; read-out: IC50
row,SMILES,IC50 [µM]
1,COc1ccc(-[n+]2c(-c3ccc(Cl)cc3)cn3c2CCCCC3)cc1 [Compound C-6],11.7
2,COc1ccc(-[n+]2c(-c3ccccc3)cn3c2CCCCC3)cc1 [Compound C-8],4.1
3,COc1ccc(-c2cn3c([n+]2-c2ccccc2OC)CCCCC3)cc1 [Compound C-2],3.1
4,CCOc1ccc(-[n+]2c(-c3ccc(OC)cc3)cn3c2CCCCC3)cc1 [Compound C-1],1.6
5,COc1ccc(-[n+]2c(-c3ccc(OC(F)F)cc3)cn3c2CCCCC3)cc1 [Compound C-7],6.3
6,COc1ccc(-c2cn3c([n+]2-c2ccc(Cl)cc2)CCCCC3)cc1 [Compound C-4],11.5
7,Clc1ccc(-c2cn3c([n+]2-c2ccc(Cl)cc2)CCCCC3)cc1 [Compound C-9],27
8,CCOc1ccc(-c2c(C)n3c([n+]2-c2ccc(OCC)cc2)CCCCC3)cc1 [Compound C-5],1.2
9,COc1ccc(-c2cn3c([n+]2-c2ccc(C)cc2)CCCCC3)cc1 [Compound C-3],4.2

# Same assay, conditions: Mus musculus; Table 3; assay not given; read-out: IC50
row,SMILES,IC50 [µM]
1,CCOc1ccc(-c2c[n+](-c3ccc(OC)cc3)c3n2-c2ccccc2CC3)cc1.[Br-] [Compound E-1],0.14
2,COc1ccc(-[n+]2cc(-c3ccc(Cl)cc3)n3c2SCCC3)cc1 [Compound D-5],2.4
3,CCOc1ccc(-[n+]2cc(-c3ccccc3)n3c2CCC3)cc1 [Compound D-1],0.96
4,COc1ccc(-c2c[n+](-c3ccc(OC)cc3)c3n2CCOC3)cc1 [Compound D-6],14.1
5,COc1ccc(-[n+]2cc(-c3ccc(C)cc3)n3c2SC(C)C3)cc1 [Compound D-3],1.1
6,COc1ccc(-[n+]2cc(-c3ccc(Br)cc3)n3c2SCC3C)cc1 [Compound D-4],2.6
7,COc1ccc(-c2c[n+](-c3ccc(OC)cc3)c3n2CCS3)cc1 [Compound D-2],3.1

# System: Gli2
# Test: Gli2 trafficking assay in NIH 3T3 cells
# Format: cell-based
# Settings: ShhN treatment
# Description: NIH 3T3 cells were also employed in an assay to quantify Gli2 trafficking NIH-3T3 cells were seeded into 24-well plates containing poly-D-lysine-coated 12-mm glass coverslips (65,000 cells/well) and cultured for 24 hrs. […] Each compound or vehicle treatment was conducted in biological triplicates in the presence or absence of 10% (v/v) ShhN-conditioned medium. The cells were subsequently fixed in PBS containing 4% (v/v) paraformaldehyde for 12 min at room temperature, washed three times with PBS, permeabilized in PBS containing 0.5% (v/v) Triton X-100 for 5 min, and washed again twice in PBS. […] After three PBS washes, the coverslips were mounted onto slides using Prolong Gold Antifade Reagent with DAPI (Invitrogen, P36931). The cells were imaged using a Plan Apochromat 63×/1.4-0.6 oil immersion objective on an upright Leica DM4500B compound microscope. Ciliary Gli2 levels were quantified by determining total pixel intensity within a circular region manually placed at the distal end of each cilium and subtracting background fluorescence in an adjacent region of equivalent size. A total of 30 cilia from three coverslips were analyzed to determine the average ciliary Gli2 level for each experimental condition as a measure of Gli2 trafficking.
row,SMILES,Effect on ShhN-induced Gli2 accrual at the ciliary distal tip
1,"CC1=C2C[C@H]3[C@@H](CC=C4C[C@@H](O)CC[C@@]43C)[C@@H]2CC[C@]12O[C@@H]1C[C@H](C)CN[C@H]1[C@H]2C [cyclopamine, reference compound]",cyclopamine-sensitive

# System: SANT-1-resistant BCC line
# Test: Proliferation of SANT-1-resistant BCC line
# Format: cell-based, mouse
# Settings: not given
# Source text: (§1) Murine basal cell carcinomas (BCCs) were derived from Ptch1+/−; p53−/− mice subjected to UV radiation [Aszterbaum et al., Nat. Med. (1999) 5:1285-91]. A line resistant to the Smo antagonist SANT-1 was obtained by culturing the cells in media containing increasing concentrations of the inhibitor until the majority of cells were killed and resistant clones emerged.
row,SMILES,Proliferation of SANT-1-resistant line
1,CCOc1ccc(-[n+]2cc(-c3ccc(-c4ccccc4)cc3)n3c2CCCCC3)cc1 [Compound A-8],able to block the proliferation

# System: BCC allograft tumors
# Test: Murine BCC allograft model
# Format: in vivo, mouse
# Settings: 0.01% solution, topical, day 14
# Description: Murine BCC allograft model: Ptch1+/−; K14:Cre-ER2; p53fl/fl mice were injected with tamoxifen (to knock out p53) at six weeks of age, and at 8 weeks of age they were given one dose of 4 Gy of ionizing radiation. After BCCs formed and grew to 5-7 mm in diameter (typically between 6-8 months of age), they were harvested and dissociated to prepare a cell suspension. A mixture of the cell suspension and Matrigel was then injected subcutaneously into NOD/SCID mice purchased from Jackson Laboratories. Once the allografted tumors became visible, they were monitored with digital calipers and the volume was estimated by the formula (d^2)*D/2, where d is the smallest diameter of the tumor and D is the largest diameter. The compound was applied topically to the tumor as a DMSO solution (100 μL per application).
row,SMILES,Tumor volume compared to control
1,CCOc1ccc(-[n+]2cc(-c3ccc(-c4ccccc4)cc3)n3c2CCCCC3)cc1 [Compound A-8],reduced tumor volume by half

# System: BCC cell line
# Test: Murine basal cell carcinoma (BCC) cell proliferation
# Format: cell-based, mouse
# Settings: not given
# Source text: as §1
row,SMILES,Proliferation of original BCC cell line
1,CCOc1ccc(-[n+]2cc(-c3ccc(-c4ccccc4)cc3)n3c2CCCCC3)cc1 [Compound A-8],able to block the proliferation

# Same assay, conditions: 750 nM, dose-dependent
row,SMILES,BCC proliferation
1,CCOc1ccc(-[n+]2cc(-c3ccc(-c4ccccc4)cc3)n3c2CCCCC3)cc1 [Compound A-8],20 % of control
